Legend:
Format in all cases: biochemical
[1] = molecular target: T1, recombinant human Lp-PLA2 (Homo sapiens, UniProt Q13093); assay: (1b) hrThioPAF assay, recombinant human Lp-PLA2; conditions: Examples 266-412 were tested here, one experiment or average of multiple experiments, read-out: rhLp-PLA2 (pIC50) (converted)
T1 sequence (Q13093 22-441): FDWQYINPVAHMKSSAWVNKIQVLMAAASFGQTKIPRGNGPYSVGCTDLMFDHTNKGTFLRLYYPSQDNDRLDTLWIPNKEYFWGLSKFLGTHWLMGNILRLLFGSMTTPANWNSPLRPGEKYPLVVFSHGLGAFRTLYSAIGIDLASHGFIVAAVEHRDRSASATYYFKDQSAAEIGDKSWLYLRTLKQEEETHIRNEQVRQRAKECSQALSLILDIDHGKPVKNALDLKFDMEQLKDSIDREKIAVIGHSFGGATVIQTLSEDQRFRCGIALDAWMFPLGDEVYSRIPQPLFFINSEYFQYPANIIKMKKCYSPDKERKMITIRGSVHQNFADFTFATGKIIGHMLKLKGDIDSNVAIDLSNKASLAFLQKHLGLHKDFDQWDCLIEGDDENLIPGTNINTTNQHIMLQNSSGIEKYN
From the text: 1-O-Hexadecyl-2-deoxy-2-thio-S-acetyl-sn-glyceryl-3-phosphorylcholine (2-thio-PAF) is a substrate for PAF-hydrolases (PAF-AH) commercially available from Cayman Chemical. Upon cleavage with PAF-AH, the free thiol is released at the sn-2 position and can then react with 7-diethylamino-3-(4′-maleimidylphenyl)-4-methylcoumarin (CPM) a thiol-reactive coumarin. This reaction (Michael addition) results in an increase in fluorescence. Inhibitors of Lp-PLA2 therefore prevent this cleavage and no fluorescent increase is observed.
The Thio-PAF assay was run as an unquenched 20 μL assay. The source plate containing the compounds to be tested was prepared by making 1:3 (by volume) serial dilution of the compounds within DMSO on 384-well microplate. Then, 5 μL of the compounds on compound source plate were transferred into 384 well Greiner 784076 (black) plates using STAR+(Hamilton) liquid dispenser. 10 μL of recombinant human Lp-PLA2 enzyme (20 pM rhLp-PLA2 in assay buffer of 50 mM HEPES, pH 7.4, 150 mM NaCl, 1 mM CHAPS) was added to each well of the plate. 5 μL of substrate comprising 40 μM 2-thio-PAF [from ethanol stock], 40 μM CPM [from a DMSO stock] and 400 μM NEM (N-ethylmaleimide) [made fresh daily in DMSO] in assay buffer (50 mM HEPES, pH 7.4, 150 mM NaCl, 1 mM CHAPS) was added to 384 well Greiner 784076 black plates. Plates were vortexed for 10 sec. The plate was covered to protect it from light and incubated for 20 min at 25° C. The plates were read for fluorescence intensity at ex: 380 nm/em: 485 nm using Envision plate reader (Perkin Elmer). Raw data were transferred to Excel software and pIC50 data, curve and QC analysis was conducted by using XL fit module in Excel.

Lp-PLA2 in human plasma = molecular target: T2, Lp-PLA2 in human plasma (Homo sapiens, UniProt Q13093); assay: (3a) Lp-PLA2 human plasma Thio-PAF assay; conditions: (3a) Thio-PAF assay, pooled human plasma; Examples 1-265 and 413-430 were tested here; read-out: pIC50 in the Lp-PLA2 human plasma assay (converted)
T2 construct: from tissue; host or cells: pooled human plasma
T2 sequence (Q13093 22-441): T1 sequence (Q13093 22-441)
How it was run: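 Pooled human plasma preincubated 30 min with serially diluted compound, then given 2-thio-PAF substrate with CPM and NEM in 50 mM HEPES pH 7.4, 150 mM NaCl, 1 mM CHAPS. Reaction quenched with TFA after 2 min; CPM thiol-adduct fluorescence read at ex 380/em 485 after 40 min; pIC50 reported.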

[2] = molecular target: T1, recombinant human Lp-PLA2; assay: (1a) PED6 assay, recombinant human Lp-PLA2 (rhLp-PLA2); conditions: Examples 1-167 and 413-430 were tested here, one experiment or average of multiple experiments, read-out: rhLp-PLA2 (pIC50) (converted)
How it was run: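 PED6 (2 μM final after 1:1 addition of 4 μM stock) cleavage by rhLp-PLA2 (4 nM working solution) in 50 mM HEPES pH 7.4, 150 mM NaCl, 1 mM CHAPS; compounds preincubated with enzyme 30 minutes, reaction 20 min at room temperature. Fluorescence at ex 480/em 540; pIC50 from curve fit.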

Row | SMILES | IC50 [1] [µM] | IC50 (Lp-PLA2 in human plasma) [µM] | IC50 [2] [µM]
1 | CCOC(=O)C(C)N1CCN2c3cc(OCc4ccc(F)c(F)c4)nc(=O)n3CC2C1 (single isomer, unassigned) [Example E326, Ethyl 2-(7-((3,4-difluorobenzyl)oxy)-9-oxo-3,4,11,11a-tetrahydro-1H-pyrazino[1′,2′:3,4]imidazo[1,2-c]pyrimidin-2(9H)-yl)propanoate] | ≤ 10 |  | 
2 | N#Cc1cc(COc2cc3n(c(=O)n2)C[C@H]2CC(O)CN32)ccc1F (stereo in doubt) [Example E381, 2-Fluoro-5-((((7R,8aR)-7-hydroxy-1-oxo-1,6,7,8,8a,9-hexahydropyrrolo[1′,2′:3,4]imidazo[1,2-c]pyrimidin-3-yl)oxy)methyl)benzonitrile] | ≤ 10 |  | 
3 | N#Cc1cc(CCOc2cc3n(c(=O)n2)CC2(CCOCC2)N3)ccc1F [Example 404, 2-Fluoro-5-(2-((5-oxo-2′,3,3′,5,5′,6′-hexahydro-1H-spiro[imidazo[1,2-c]pyrimidine-2,4′-pyran]-7-yl)oxy)ethyl)benzonitrile] | ≤ 10 |  | 
4 | O=c1nc(OCc2ccc(F)c(F)c2)cc2n1CC1(CCN(S(=O)(=O)C3CC3)CC1)N2 [Example 410, 1′-(Cyclopropylsulfonyl)-7-((3,4-difluorobenzyl)oxy)-1H-spiro[imidazo[1,2-c]pyrimidine-2,4′-piperidin]-5(3H)-one] | ≤ 0.001 |  | 
5 | CCCn1cc(Oc2c(F)cc(COc3cc4n(c(=O)n3)C[C@@H]3COCN43)cc2F)cn1 [Example E156, (R)-6-((3,5-difluoro-4-((1-propyl-1H-pyrazol-4-yl)oxy)benzyl)oxy)-10,10a-dihydro-1H-oxazolo[3′,4′:3,4]imidazo[1,2-c]pyrimidin-8(3H)-one] |  | ≤ 10 | ≤ 0.1
6 | Cc1ccc(Oc2c(F)cc(COc3cc4n(c(=O)n3)C[C@@H]3COCN43)cc2F)cn1 [Example E157, (R)-6-((3,5-difluoro-4-((6-methylpyridin-3-yl)oxy)benzyl)oxy)-10,10a-dihydro-1H-oxazolo[3′,4′:3,4]imidazo[1,2-c]pyrimidin-8(3H)-one] |  | ≤ 10 | ≤ 0.1
7 | CCn1cc(Oc2c(F)cc(COc3cc4n(c(=O)n3)C[C@@H]3COCN43)cc2F)cn1 [Example E158, (R)-6-((4-((1-ethyl-1H-pyrazol-4-yl)oxy)-3,5-difluorobenzyl)oxy)-10,10a-dihydro-1H-oxazolo[3′,4′:3,4]imidazo[1,2-c]pyrimidin-8(3H)-one] |  | ≤ 10 | ≤ 0.1
8 | Cc1ncc(Oc2c(F)cc(COc3cc4n(c(=O)n3)C[C@@H]3COCN43)cc2F)cn1 [Example E159, (R)-6-((3,5-difluoro-4-((2-methylpyrimidin-5-yl)oxy)benzyl)oxy)-10,10a-dihydro-1H-oxazolo[3′,4′:3,4]imidazo[1,2-c]pyrimidin-8(3H)-one] |  | ≤ 10 | ≤ 0.1
9 | CCn1cc(Oc2c(F)cc(COc3cc4n(c(=O)n3)C[C@H]3COCN43)cc2F)cn1 [Example E160, (S)-6-((4-((1-ethyl-1H-pyrazol-4-yl)oxy)-3,5-difluorobenzyl)oxy)-10,10a-dihydro-1H-oxazolo[3′,4′:3,4]imidazo[1,2-c]pyrimidin-8(3H)-one] |  | ≤ 10 | ≤ 0.1
10 | Cc1cc(Oc2c(F)cc(COc3cc4n(c(=O)n3)C[C@H]3COCN43)cc2F)ccn1 [Example E161, (S)-6-((3,5-difluoro-4-((2-methylpyridin-4-yl)oxy)benzyl)oxy)-10,10a-dihydro-1H-oxazolo[3′,4′:3,4]imidazo[1,2-c]pyrimidin-8(3H)-one] |  | ≤ 10 | ≤ 0.1
11 | CN1CCN2c3cc(OCc4cc(F)c(Oc5ccnc(C(F)(F)F)c5)c(F)c4)nc(=O)n3CC2C1 (stereo not drawn) [Example E166, 7-((3,5-Difluoro-4-((2-(trifluoromethyl)pyridin-4-yl)oxy)benzyl)oxy)-2-methyl-3,4,11,11a-tetrahydro-1H-pyrazino[1′,2′:3,4]imidazo[1,2-c]pyrimidin-9(2H)-one] |  | ≤ 0.1 | ≤ 0.001
12 | CN1CCN2c3cc(OCc4cc(F)c(Oc5cnn(C)c5)c(F)c4)nc(=O)n3CC2C1 (stereo not drawn) [Example E167, 7-((3,5-Difluoro-4-((1-methyl-1H-pyrazol-4-yl)oxy)benzyl)oxy)-2-methyl-3,4,11,11a-tetrahydro-1H-pyrazino[1,2′:3,4]imidazo[1,2-c]pyrimidin-9(2H)-one] |  | ≤ 10 | ≤ 0.1
13 | O=c1nc(OCc2cccc(F)c2F)cc2n1CC1CNCCN21 (stereo not drawn) [Example E268, 7-((2,3-Difluorobenzyl)oxy)-3,4,11,11a-tetrahydro-1H-pyrazino[1′,2′:3,4] imidazo [1,2-c]pyrimidin-9(2H)-one] | ≤ 10 |  | 
14 | Cc1ccc(COc2cc3n(c(=O)n2)CC2CNCCN32)cc1C#N (stereo not drawn) [Example E271, 2-Methyl-5-(((9-oxo-2,3,4,9,11,11a-hexahydro-1H-pyrazino[1′,2′:3,4]imidazo [1,2-c]pyrimidin-7-yl)oxy)methyl) benzonitrile] | ≤ 10 |  | 
15 | O=c1nc(OCc2ccc(Cl)c(Br)c2)cc2n1CC1CNCCN21 (stereo not drawn) [Example E275, 7-((3-Bromo-4-chlorobenzyl)oxy)-3,4,11,11a-tetrahydro-1H-pyrazino[1′,2′:3,4] imidazo [1,2-c]pyrimidin-9(2H)-one] | ≤ 10 |  | 
16 | O=c1nc(OCc2ccc(F)c(Br)c2)cc2n1CC1CNCCN21 (stereo not drawn) [Example E276, 7-((3-Bromo-4-fluorobenzyl)oxy)-3,4,11,11a-tetrahydro-1H-pyrazino[1′,2′:3,4] imidazo [1,2-c]pyrimidin-9(2H)-one] | ≤ 10 |  | 
17 | O=c1nc(OCc2ccc(F)c(Cl)c2)cc2n1CC1CNCCN21 (stereo not drawn) [Example E277, 7-((3-Chloro-4-fluorobenzyl)oxy)-3,4,11,11a-tetrahydro-1H-pyrazino[1′,2′:3,4] imidazo [1,2-c]pyrimidin-9(2H)-one] | ≤ 10 |  | 
18 | COc1ccc(COc2cc3n(c(=O)n2)CC2CNCCN32)cc1C#N (stereo not drawn) [Example E278, 2-Methoxy-5-(((9-oxo-2,3,4,9,11,11a-hexahydro-1H-pyrazino[1′,2′:3,4]imidazo [1,2-c]pyrimidin-7-yl)oxy)methyl) benzonitrile] | ≤ 10 |  | 
19 | CS(=O)(=O)N1CCN2c3cc(NCc4ccc(F)c(F)c4)nc(=O)n3CC2C1 (stereo not drawn) [Example E309, 7-((3,4-Difluorobenzyl)amino)-2-(methylsulfonyl)-3,4,11,11a-tetrahydro-1H-pyrazino[1′,2′:3,4]imidazo[1,2-c]pyrimidin-9(2H)-one] | ≤ 10 |  | 
20 | CS(=O)(=O)N1CCN2c3cc(NCc4cccc(F)c4F)nc(=O)n3CC2C1 (stereo not drawn) [Example E311, 7-((2,3-Difluorobenzyl)amino)-2-(methylsulfonyl)-3,4,11,11a-tetrahydro-1H-pyrazino[1′,2′:3,4]imidazo[1,2-c]pyrimidin-9(2H)-one] | ≤ 10 |  | 
21 | CS(=O)(=O)N1CCN2c3cc(NCc4ccc(F)c(C#N)c4)nc(=O)n3CC2C1 (stereo not drawn) [Example E312, 2-Fluoro-5-(((2-(methylsulfonyl)-9-oxo-2,3,4,9,11,11a-hexahydro-1H-pyrazino[1′,2′:3,4]imidazo[1,2-c]pyrimidin-7-yl)amino)methyl)benzonitrile] | ≤ 10 |  | 
22 | CC(=O)N1CCN2c3cc(NCc4ccc(F)c(C#N)c4)nc(=O)n3CC2C1 (stereo not drawn) [Example E314, 5-(((2-Acetyl-9-oxo-2,3,4,9,11,11a-hexahydro-1H-pyrazino[1′,2′:3,4]imidazo[1,2-c]pyrimidin-7-yl)amino)methyl)-2-fluorobenzonitrile] | ≤ 10 |  | 

Reference: patent US11999746B2, “Compounds” (GlaxoSmithKline Intellectual Property Development Limited, priority 2014, dated 2024)
